# Earlier results in patent US20150024025A1, “ALIGNED N[…] AXONAL RE[…] SPINAL CORD INJURY OR SURGERY” (THE UAB RESEARCH FOUNDATION, priority 2012, published 2015).
# Test system: spinal cord injury
substance,measurement,value
chondroitinase ABC,axonal repair and regeneration in vivo after spinal cord injury,promotes axonal repair and regeneration
